Where a name gives a salt, the structure may show the parent alone.

The term melting point denotes the temperature, or range, at which the solid turns liquid.

`CC(C)(Cc1ccc(F)cc1F)NCC(O)c1cc(O)cc2c1OCC(=O)N2` (centres unmarked) (as salt: hydrochloride) returned a melting point of 279 to 280 °C.

The compound `Cc1cc(CC(C)(C)NCC(O)c2cc(O)cc3c2OCC(=O)N3)ccc1F` (centres unmarked) (as salt: hydrochloride) [Example 10, 8-{2-[2-(4-Fluoro-3-methylphenyl)-1,1-dimethylethylamino]-1-hydroxyethyl}-6-hydroxy-4H-benzo[1,4]oxazin-3-one] came in with a melting point of 278 to 280 °C.

`Cc1cc(F)ccc1CC(C)(C)NCC(O)c1cc(O)cc2c1OCC(=O)N2` (centres unmarked) (as salt: hydrochloride) [Example 11, 8-{2-[2-(4-fluoro-2-methylphenyl)-1,1-dimethylethylamino]-1-hydroxyethyl}-6-hydroxy-4H-benzo[1,4]oxazin-3-one]: the melting point is 278 to 280 °C.

For `Cc1cc(C)cc(CC(C)(C)NCC(O)c2cc(O)cc3c2OCC(=O)N3)c1` (centres unmarked) (as salt: hydrochloride) [Example 15, 8-{2-[2-(3,5-dimethylphenyl)-1,1-dimethylethylamino]-1-hydroxyethyl}-6-hydroxy-4H-benzo[1,4]oxazin-3-one], the melting point is 235 to 238 °C.

With `CC(C)(Cc1ccc(OCCCC(=O)O)cc1)NCC(O)c1cc(O)cc2c1OCC(=O)N2` (centres unmarked) [Example 16, 4-(4-{2-[2-hydroxy-2-(6-hydroxy-3-oxo-3,4-dihydro-2H-benzo[1,4]oxazin-8-yl)ethylamino]-2-methylpropyl}phenoxy)butyric acid], the melting point was in the range of 201 to 204 °C.

The record behind these values is patent publication US7786111B2, “Medicaments for the treatment of chronic obstructive pulmonary disease” (Boehringer Ingelheim Pharma GmbH & Co. KG, priority 2002, dated 2010).
